A short description of data set [1]: UV/visible extinction at 400 nm. The format is physicochemical. As to conditions: for εmol at 400 nm: Table 1; for Extinction at 400 nm: Table 2.
The nature of data set [2]: Attained thickness of cured layer of resin solution (curing depth) after storage, dental radiator 20 s. Particulars: for Layer Thickness after 1 month / Layer Thickness after 24 hrs: 0.5% by weight photoinitiator in solution I, 20 s exposure; for Layer Thickness after 1 month: stored 1 month in absence of light; for Layer Thickness after 24 hrs: stored 1 day in absence of light; for Thickness Loss: 24 hrs versus 1 month storage. The protocol:
70 parts by weight of bis-acryloxymethyl-tricyclo-[5.2.1.0.^2,6 ]-decane and
30 parts by weight of 2,2-bis-4-(3-methacryloxy-2-hydroxypropoxy)-phenylpropane (Bis-GMA)
are stirred while carefully heated until a clear solution I is formed.
The solution I is cooled to room temperature and 0.5% by weight of a photoinitiator (selected from those listed in Table 2) are added with stirring until the solution is clear.
The resulting solution is introduced into a cylinder (5 mm diameter, 8 mm length; for greater thicknesses 20 mm). Thereafter the solution is exposed to radiation from a commercial dental radiator (Elipar-Visio/Espe) for 20 seconds, the polymer is removed from the cylinder, the soft or gel-like, incompletely polymerized components are removed with a plastic spatula, and the attained thickness of the layer is measured. To this end the solutions are stored prior to polymerization for 1 day and 1 month, respectively, in the absence of light.

Data set [3] is described as follows: Temperature course during polymerization of tooth filling composite. Particulars: 3 mm height, 20 s exposure; for Time for reaching Tmax: cylinder 3 mm diameter; for Tmax: middle of cylinder 3 mm diameter. The text has this: (§1) Tooth filling composites prepared according to Example 3 with the use of the photoinitiators listed in Table 3 are filled into cylinders (3 mm diameter, 3 mm height) in the middle of which the temperature can be measured during the polymerization. After 20 seconds of exposure to light from a commercial dental radiator (Elipar-Visio lamp/Espe) the structures are taken out and the soft layer is removed with toluene. From the weight difference the amount of uncured material in mg/cm^2 at the upper and lower surface of the cylinder is calculated. Moreover, the temperature course in time is followed by the thermosensor and a measuring instrument connected thereto.

The nature of data set [4]: Uncured soft layer at surface of tooth filling composite. As to conditions: 20 s exposure; for Soft Layer (amount of uncured material), upper surface: first of two values, upper surface of cylinder; for Soft Layer (amount of uncured material), lower surface: second of two values, lower surface of cylinder.
Source text: as §1

Turning to `COc1c(Cl)c(C(=O)P(=O)(C(=O)c2c(Cl)c(OC)c(OC)c(OC)c2Cl)c2cc(C)ccc2C)c(Cl)c(OC)c1OC` [bis-(2,6-dichloro-3,4,5-trimethoxybenzoyl)-2,5-dimethylphenylphosphine oxide], the “εmol at 400 nm” value in data set [1] came out at 640.
Still for that read-out and setting: the result for `CCCCCCCCc1ccc(P(=O)(C(=O)c2c(Cl)cccc2Cl)C(=O)c2c(Cl)cccc2Cl)cc1` [bis-(2,6-dichlorobenzoyl)-4-octylphenylphosphine oxide] reads 620; that for `O=C(c1c(Cl)cccc1Cl)P(=O)(C(=O)c1c(Cl)cccc1Cl)c1ccc(-c2ccccc2)cc1` [bis-(2,6-dichlorobenzoyl)-4-biphenylylphosphine oxide], 800.
`O=C(c1c(Cl)cccc1Cl)P(=O)(c1ccccc1)c1ccccc1` [2,6-Dichlorobenzoyl-diphenylphosphine oxide, reference compound]: in data set [2], the “Layer Thickness after 1 month” value was determined as 6.5 mm, the “Layer Thickness after 24 hrs” value amounted to 7 mm and the “Thickness Loss” value was found to be 7%. Moreover, the “Extinction at 400 nm” value in data set [1] was 190.
For the molecule `CCOc1ccc(P(=O)(C(=O)c2c(OC)ccc3ccccc23)C(=O)c2c(OC)ccc3ccccc23)cc1` [bis-(2-methoxy-1-naphthoyl)-4-ethoxyphenylphosphine oxide], in data set [1], the “εmol at 400 nm” value worked out at 2700.
On to `Cc1ccc(C)c(P(=O)(C(=O)c2c(Cl)cccc2Cl)C(=O)c2c(Cl)cccc2Cl)c1` [Bis-(2,6-dichlorobenzoyl)-2,5-dimethylphenylphosphine Oxide], for which, in data set [2], the “Layer Thickness after 1 month” value is reported as 14.5 mm, the “Layer Thickness after 24 hrs” value is given as 15 mm and the “Thickness Loss” value worked out at 3%. In data set [1], the “εmol at 400 nm” value was 580 and the “Extinction at 400 nm” value is listed as 580. In data set [3], the “Time for reaching Tmax” value is 16 s and the Tmax was 43.7 °C. Further, in data set [4], the “Soft Layer (amount of uncured material), upper surface” value was 1.0 mg/cm^2 and the “Soft Layer (amount of uncured material), lower surface” value is reported as 1.1 mg/cm^2.
Take `COc1ccc2ccccc2c1C(=O)P(=O)(C(=O)c1c(OC)ccc2ccccc12)c1cc(C)ccc1C` [Bis-(2-methoxy-1-naphthoyl-2,5-dimethylphenylphosphineoxide]: the “εmol at 400 nm” value in data set [1] was determined as 2550.
Consider `O=C(c1c(Cl)cccc1Cl)P(=O)(C(=O)c1c(Cl)cccc1Cl)c1ccccc1` [bis-(2,6-dichlorobenzoyl)phenylphosphine oxide], for which, in data set [2], the “Layer Thickness after 1 month” value is 14.5 mm, the “Layer Thickness after 24 hrs” value is recorded as 15 mm and the “Thickness Loss” value turned out to be 3%. In data set [1], the “εmol at 400 nm” value is 607 and the “Extinction at 400 nm” value was 607.
For `Cc1ccc2ccccc2c1C(=O)P(=O)(C(=O)c1c(C)ccc2ccccc12)c1ccc(-c2ccccc2)cc1` [bis-(2-methyl-1-naphthoyl)-4-biphenylylphosphine oxide], in data set [1], the “εmol at 400 nm” value amounted to 1680.
`Cc1ccc2ccccc2c1C(=O)P(=O)(C(=O)c1c(C)ccc2ccccc12)c1ccccc1` [bis-(2-methyl-1-naphthoyl)phenylphosphine oxide]: the “εmol at 400 nm” value in data set [1] is 1040.
As to `Cc1ccc(C)c(P(=O)(C(=O)c2c(Cl)cccc2Cl)c2cc(C)ccc2C)c1` [2,6-Dichlorobenzoyl-bis-(2,5-dimethylphenyl)phosphine oxide, reference compound], in data set [2], the “Layer Thickness after 1 month” value came out at 4.1 mm, the “Layer Thickness after 24 hrs” value was 5.1 mm and the “Thickness Loss” value was 20%. For the same molecule, the “Extinction at 400 nm” value in data set [1] worked out at 440.
For the molecule `COc1cccc(OC)c1C(=O)P(=O)(C(=O)c1c(OC)cccc1OC)c1ccccc1` [bis-(2,6-dimethoxybenzoyl)phenylphosphine oxide], the “εmol at 400 nm” value in data set [1] came out at 550.
Still for that read-out and setting: the result for `CCOc1ccc(P(=O)(C(=O)c2c(Cl)cccc2Cl)C(=O)c2c(Cl)cccc2Cl)cc1` [bis-(2,6-dichlorobenzoyl)-4-ethoxyphenylphosphine oxide] reads 690.
For the molecule `CCCCCCCCCCP(=O)(C(=O)c1c(Cl)cccc1Cl)C(=O)c1c(Cl)cccc1Cl` [bis-(2,6-dichlorobenzoyl)decylphosphine oxide], the “εmol at 400 nm” value in data set [1] worked out at 470.
For the molecule `Cc1cc(C)c(C(=O)P(=O)(c2ccccc2)c2ccccc2)c(C)c1` [2,4,6-Trimethylbenzoyldiphenylphosphine oxide, reference compound], in data set [3], the “Time for reaching Tmax” value turned out to be 18 s and the Tmax amounted to 39.8 °C. Moreover, in data set [4], the “Soft Layer (amount of uncured material), upper surface” value is reported as 1.8 mg/cm^2 and the “Soft Layer (amount of uncured material), lower surface” value is on record as 2.0 mg/cm^2.
On to `COc1cccc(OC)c1C(=O)P(=O)(C(=O)c1c(OC)cccc1OC)c1cc(C)ccc1C` [bis-(2,6-dimethoxybenzoyl)-2,5-dimethylphenylphosphine oxide], for which the “εmol at 400 nm” value in data set [1] is on record as 505.

The values above are taken from US4792632A, “Bisacylphosphine oxides, the preparation and use thereof” (ESPE Fabrik Pharmazeutischer Praparate GmbH, priority 1984, dated 1988).
